Results published in paper PMC9073595, “Synthesis, human topoisomerase IIα inhibitory properties and molecular modeling studies of anti-proliferative curcumin mimics” (RSC Advances, 2019).

Key:
[1] = biological target: T1, human DNA topoisomerase IIα (Homo sapiens, UniProt P11388); experiment: Human DNA topoisomerase IIα activity assay (TopoGEN kit, plasmid based); format: biochemical
T1 construct: purchased TopoGEN, Inc

[2] = tested on: HCT116 (colon) carcinoma cell line; experiment: MTT anti-proliferative assay, HCT116; format: cell-based; conditions: Homo sapiens, HCT-116, 72 h; read-out: IC50, μM ± SD, HCT116
[3] = tested on: RPE1 (normal human immortalized retinal pigment epithelial cell line); experiment: MTT assay on normal cells, RPE1; format: cell-based; conditions: RPE-1, RPE1 normal (non-cancer) cell line, read-out: IC50, μM ± SD, RPE1
Procedure: In-vitro antitumor screening
The targeted piperidinecarboxamides 24‒51 were screened for their antitumor properties against HCT116 (colon), MCF7 (breast) and A431 (squamous skin) carcinoma cell lines by the standard mitochondrial dependent reduction of yellow MTT [3-(4,5-dimethylthiazol-2-yl)-2,5-diphenyl-tetrazolium bromide] to purple formazan technique.11 Cells were suspended in McCoy’s 5A medium for HCT116, DMEM for MCF-7 and A431 in addition to 1% antibiotic–antimycotic mixture (10000 μg ml-1 potassium penicillin, 10000 μg ml-1 streptomycin sulfate and 25 μg ml-1 amphotericin B), 10% fetal bovine serum and 1% L-glutamine at 37 °C, under 5% CO2 and 95% humidity. Cells were seeded at concentration of 30000 cells per well in fresh complete growth medium in 96-well tissue culture microtiter plates for 24 h. Media was aspirated, fresh complete medium was added and cells were incubated with different concentrations of the tested compound to give a final concentration of [50, 25, 12.5 and 6.25 μM ([…] and 0.375 μM for the high potent analogues)]. 0.5% DMSO was used as negative control and 5-fluorouracil was used as positive control (standard reference). Triplicate wells were prepared for each individual dose. After 72 h of incubation, medium was aspirated, 40 μl MTT salt (2.5 mg ml-1) were added to each well and incubated for further 4 h at 37 °C.
To stop the reaction and dissolve the formed crystals, 150 μl of 10% sodium dodecyl sulfate (SDS) in deionized water were added to each well and incubated overnight at 37 °C. The absorbance was then measured at 570 nm and a reference wavelength of 595 nm.
Data were collected as mean values for experiments performed in triplicates for each individual dose which had been measured by MTT assay. Control experiments did […]
survival was calculated according to equ. (1).
Surviving fraction = … . (1)
The synthesized compounds 24‒51 were also tested against RPE1 (normal human immortalized retinal pigment epithelial cell line) cell to determine the toxicity/selectivity […]
towards normal cells relative to the carcinoma cell lines utilized. The IC50 (concentration […]
was determined using Graph-Pad PRISM version-5 software. Statistical calculations for determination of the mean and standard error values were determined by SPSS 16 […]
8:1 which is the ratio between the data points and the number of QSAR descriptor).
Human DNA topoisomerase IIα inhibitory properties

[4] = tested on: MCF7 (breast) carcinoma cell line; experiment: MTT anti-proliferative assay, MCF7; format: cell-based; conditions: Homo sapiens, MCF7, 72 h; read-out: IC50, μM ± SD, MCF7
[5] = tested on: A431 (squamous skin) carcinoma cell line; experiment: MTT anti-proliferative assay, A431; format: cell-based; conditions: Homo sapiens, A-431, 72 h; read-out: IC50, μM ± SD, A431

T1 sequence (P11388 whole entry): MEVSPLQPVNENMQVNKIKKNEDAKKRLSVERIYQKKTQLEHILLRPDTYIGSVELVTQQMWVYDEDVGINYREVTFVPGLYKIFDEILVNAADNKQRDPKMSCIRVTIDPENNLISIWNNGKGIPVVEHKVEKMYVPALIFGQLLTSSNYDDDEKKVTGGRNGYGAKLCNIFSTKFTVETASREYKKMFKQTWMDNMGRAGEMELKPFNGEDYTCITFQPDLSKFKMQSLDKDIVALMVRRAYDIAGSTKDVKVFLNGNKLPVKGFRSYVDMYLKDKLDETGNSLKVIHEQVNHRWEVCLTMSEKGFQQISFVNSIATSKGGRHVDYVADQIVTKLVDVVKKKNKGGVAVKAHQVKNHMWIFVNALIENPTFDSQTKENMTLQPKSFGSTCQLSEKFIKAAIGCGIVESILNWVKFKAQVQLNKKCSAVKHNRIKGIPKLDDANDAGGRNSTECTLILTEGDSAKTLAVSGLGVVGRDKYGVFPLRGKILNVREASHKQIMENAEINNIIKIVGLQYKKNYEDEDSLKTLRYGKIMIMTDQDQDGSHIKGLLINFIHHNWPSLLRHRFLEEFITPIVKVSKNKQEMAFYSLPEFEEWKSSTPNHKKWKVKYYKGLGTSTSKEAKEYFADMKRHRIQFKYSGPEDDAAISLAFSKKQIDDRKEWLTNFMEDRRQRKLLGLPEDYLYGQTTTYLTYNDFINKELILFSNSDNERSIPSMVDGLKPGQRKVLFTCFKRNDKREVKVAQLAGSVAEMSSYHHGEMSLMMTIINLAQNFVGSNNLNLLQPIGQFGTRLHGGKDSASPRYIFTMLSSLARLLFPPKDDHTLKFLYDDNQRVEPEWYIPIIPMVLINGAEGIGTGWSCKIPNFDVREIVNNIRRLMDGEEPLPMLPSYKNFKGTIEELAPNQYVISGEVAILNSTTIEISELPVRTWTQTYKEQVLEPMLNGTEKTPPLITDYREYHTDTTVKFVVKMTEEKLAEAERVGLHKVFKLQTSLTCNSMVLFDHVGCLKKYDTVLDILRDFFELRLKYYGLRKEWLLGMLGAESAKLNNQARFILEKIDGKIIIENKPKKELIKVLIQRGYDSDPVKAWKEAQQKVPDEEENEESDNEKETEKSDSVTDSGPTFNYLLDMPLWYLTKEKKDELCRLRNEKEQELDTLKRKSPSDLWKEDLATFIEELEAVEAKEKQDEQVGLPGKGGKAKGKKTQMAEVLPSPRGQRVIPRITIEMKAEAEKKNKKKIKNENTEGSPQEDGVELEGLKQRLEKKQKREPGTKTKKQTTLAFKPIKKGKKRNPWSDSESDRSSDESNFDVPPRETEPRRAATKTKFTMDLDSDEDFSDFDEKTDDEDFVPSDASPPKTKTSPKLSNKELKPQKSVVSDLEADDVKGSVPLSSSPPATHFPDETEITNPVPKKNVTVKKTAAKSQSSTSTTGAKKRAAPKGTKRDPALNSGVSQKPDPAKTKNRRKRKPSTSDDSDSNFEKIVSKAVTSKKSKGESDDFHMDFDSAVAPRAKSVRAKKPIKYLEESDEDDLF

IC50 [1]	IC50 [2]	IC50 [4]	melting point	IC50 [5]	SMILES	IC50 [3]
22 ± 0.85 µM					COc1ccc(/C=C\c2cc(OC)c(OC)c(OC)c2)cc1O [Combretastatin A-4, reference compound]	
	1.03 ± 0.29 µM	2.09 ± 0.26 µM	186 to 188 °C	2.51 ± 0.24 µM	O=C1/C(=C/c2ccccc2)CN(C(=O)Nc2ccc(Cl)cc2)C/C1=C\c1ccccc1 [Compound 25, 3,5-Di[(E)-benzylidene]-N-(4-chlorophenyl)-4-oxopiperidine-1-carboxamide]	22.1 ± 2.06 µM
56.2 ± 2.18 µM	1.5 ± 0.14 µM	5.73 ± 0.33 µM	173 to 175 °C	8.83 ± 1.26 µM	CCNC(=O)N1C/C(=C\c2ccc(OC)cc2)C(=O)/C(=C/c2ccc(OC)cc2)C1 [Compound 46, N-Ethyl-3,5-bis[(E)-4-methoxybenzylidene]-4-oxopiperidine-1-carboxamide]	47.7 ± 3.05 µM
	1.04 ± 0.11 µM	2.35 ± 0.23 µM	211 to 213 °C	1.31 ± 0.09 µM	CCNC(=O)N1C/C(=C\c2ccc(Cl)cc2)C(=O)/C(=C/c2ccc(Cl)cc2)C1 [Compound 32, 3,5-Bis[(E)-4-chlorobenzylidene]-N-ethyl-4-oxopiperidine-1-carboxamide]	12.1 ± 1.76 µM
30.7 ± 1.32 µM	0.56 ± 0.04 µM	2.34 ± 0.29 µM	191 to 193 °C	1.27 ± 0.09 µM	O=C1/C(=C/c2ccc(F)cc2)CN(C(=O)Nc2ccccc2)C/C1=C\c1ccc(F)cc1 [Compound 34, 3,5-Bis[(E)-4-fluorobenzylidene]-4-oxo-N-phenylpiperidine-1-carboxamide]	17.5 ± 2.16 µM
	1.43 ± 0.2 µM	2.48 ± 0.31 µM	184 to 186 °C	2.83 ± 0.36 µM	COc1ccc(NC(=O)N2C/C(=C\c3ccccc3)C(=O)/C(=C/c3ccccc3)C2)cc1 [Compound 26, 3,5-Di[(E)-benzylidene]-N-(4-methoxyphenyl)-4-oxopiperidine-1-carboxamide]	17.7 ± 1.98 µM
33.6 ± 1.3 µM	1.61 ± 0.14 µM	2.95 ± 0.24 µM	172 to 174 °C	2.56 ± 0.29 µM	CCNC(=O)N1C/C(=C\c2ccccc2)C(=O)/C(=C/c2ccccc2)C1 [Compound 27, 3,5-Di[(E)-benzylidene]-N-ethyl-4-oxopiperidine-1-carboxamide]	> 50 µM
40.3 ± 1.56 µM	2.73 ± 0.2 µM	5.1 ± 0.3 µM	230 to 232 °C	4.9 ± 0.34 µM	COc1ccc(NC(=O)N2C/C(=C\c3ccc(C)cc3)C(=O)/C(=C/c3ccc(C)cc3)C2)cc1 [Compound 40, N-(4-Methoxyphenyl)-3,5-bis[(E)-4-methylbenzylidene]-4-oxopiperidine-1-carboxamide]	> 50 µM
41.3 ± 1.6 µM	1.44 ± 0.17 µM	3.96 ± 0.29 µM	221 to 223 °C	2.57 ± 0.15 µM	Cc1ccc(/C=C2\CN(C(=O)Nc3ccccc3)C/C(=C\c3ccc(C)cc3)C2=O)cc1 [Compound 39, 3,5-Bis[(E)-4-methylbenzylidene]-4-oxo-N-phenylpiperidine-1-carboxamide]	> 50 µM
50.2 ± 1.94 µM	2.26 ± 0.23 µM	4.58 ± 0.28 µM	174 to 176 °C	2.64 ± 0.27 µM	CCNC(=O)N1C/C(=C\c2ccc(C)cc2)C(=O)/C(=C/c2ccc(C)cc2)C1 [Compound 41, N-Ethyl-3,5-bis[(E)-4-methylbenzylidene]-4-oxopiperidine-1-carboxamide]	18.9 ± 1.33 µM
	> 50 µM	> 50 µM		> 50 µM	O=C1/C(=C/c2cccs2)CN(C(=O)NCc2ccccc2)C/C1=C\c1cccs1 [Compound 51, (3E,5E)-N-Benzyl-4-oxo-3,5-bis(thiophen-2-ylmethylene)piperidine-1-carboxamide]	> 50 µM
23 ± 1.37 µM	0.62 ± 0.05 µM	1.71 ± 0.12 µM	189 to 191 °C	1.31 ± 0.08 µM	COc1ccc(NC(=O)N2C/C(=C\c3ccc(F)cc3)C(=O)/C(=C/c3ccc(F)cc3)C2)cc1 [Compound 36, 3,5-Bis[(E)-4-fluorobenzylidene]-N-(4-methoxyphenyl)-4-oxopiperidine-1-carboxamide]	9.46 ± 1.86 µM
	40.8 ± 2.61 µM	24.7 ± 1.99 µM	194 to 196 °C	> 50 µM	COc1ccc(NC(=O)N2C/C(=C\c3cccs3)C(=O)/C(=C/c3cccs3)C2)cc1 [Compound 49, (3E,5E)-N-(4-Methoxyphenyl)-4-oxo-3,5-bis(thiophen-2-ylmethylene)piperidine-1-carboxamide]	> 50 µM
41.8 ± 2.42 µM	0.58 ± 0.07 µM	1.13 ± 0.29 µM	185 to 187 °C	0.64 ± 0.08 µM	O=C1/C(=C/c2ccc(Cl)cc2)CN(C(=O)Nc2ccc(Cl)cc2)C/C1=C\c1ccc(Cl)cc1 [Compound 30, 3,5-Bis[(E)-4-chlorobenzylidene]-N-(4-chlorophenyl)-4-oxopiperidine-1-carboxamide]	4.89 ± 1.97 µM
	1.08 ± 0.18 µM	1.83 ± 0.14 µM	179 to 181 °C	2.49 ± 0.31 µM	O=C1/C(=C/c2ccccc2)CN(C(=O)Nc2ccccc2)C/C1=C\c1ccccc1 [Compound 24, 3,5-Di[(E)-benzylidene]-4-oxo-N-phenylpiperidine-1-carboxamide]	16.6 ± 1.57 µM
26.4 ± 1.61 µM	0.56 ± 0.06 µM	1.36 ± 0.17 µM	192 to 194 °C	1.2 ± 0.14 µM	O=C1/C(=C/c2ccc(F)cc2)CN(C(=O)Nc2ccc(Cl)cc2)C/C1=C\c1ccc(F)cc1 [Compound 35, N-(4-Chlorophenyl)-3,5-bis[(E)-4-fluorobenzylidene]-4-oxopiperidine-1-carboxamide]	8.26 ± 2.33 µM
46.2 ± 1.79 µM	1.11 ± 0.09 µM	4.17 ± 0.27 µM	185 to 187 °C	2.85 ± 0.16 µM	COc1ccc(/C=C2\CN(C(=O)Nc3ccc(Cl)cc3)C/C(=C\c3ccc(OC)cc3)C2=O)cc1 [Compound 44, N-(4-Chlorophenyl)-3,5-bis[(E)-4-methoxybenzylidene]-4-oxopiperidine-1-carboxamide]	> 50 µM
	1.13 ± 0.19 µM	2.14 ± 0.26 µM	199 to 201 °C	1.45 ± 0.12 µM	O=C1/C(=C/c2ccc(Cl)cc2)CN(C(=O)NCc2ccccc2)C/C1=C\c1ccc(Cl)cc1 [Compound 33, N-Benzyl-3,5-bis[(E)-4-chlorobenzylidene]-4-oxopiperidine-1-carboxamide]	11.4 ± 1.68 µM
	1.03 ± 0.13 µM	1.44 ± 0.19 µM	210 to 212 °C	1.24 ± 0.14 µM	COc1ccc(NC(=O)N2C/C(=C\c3ccc(Cl)cc3)C(=O)/C(=C/c3ccc(Cl)cc3)C2)cc1 [Compound 31, 3,5-Bis[(E)-4-chlorobenzylidene]-N-(4-methoxyphenyl)-4-oxopiperidine-1-carboxamide]	7.5 ± 1.75 µM
	20.1 ± 2.44 µM	21.7 ± 2.78 µM	197 to 199 °C	40.6 ± 2.88 µM	CCNC(=O)N1C/C(=C\c2cccs2)C(=O)/C(=C/c2cccs2)C1 [Compound 50, (3E,5E)-N-Ethyl-4-oxo-3,5-bis(thiophen-2-ylmethylene)piperidine-1-carboxamide]	47.4 ± 2.66 µM
	> 50 µM	33.7 ± 1.38 µM		> 50 µM	O=C1/C(=C/c2cccs2)CN(C(=O)Nc2ccccc2)C/C1=C\c1cccs1 [Compound 48, (3E,5E)-4-Oxo-N-phenyl-3,5-bis(thiophen-2-ylmethylene)piperidine-1-carboxamide]	> 50 µM
	1.31 ± 0.22 µM	2.58 ± 0.3 µM	163 to 165 °C	2.58 ± 0.27 µM	O=C1/C(=C/c2ccccc2)CN(C(=O)NCc2ccccc2)C/C1=C\c1ccccc1 [Compound 28, N-Benzyl-3,5-di[(E)-benzylidene]-4-oxopiperidine-1-carboxamide]	12 ± 1.76 µM

SMILES	IC50 [1]	IC50 [2]	IC50 [4]	melting point	IC50 [5]	IC50 [3]
COc1cc(/C=C/C(=O)CC(=O)/C=C/c2ccc(O)c(OC)c2)ccc1O [Curcumin]		38.2 ± 2.36 µM	16 ± 2.04 µM			
